Laboratory results from US20260138961A1, “MODULATORS OF MITOCHONDRIAL DNA REPLICATION” (Pretzel Therapeutics, Inc., priority 2022, published 2026).

These molecules were tested against T1, POLγA:Y955C (Homo sapiens, UniProt P54098, Y955C) (assay: DNA polymerization assay, POLγA:Y955C mutant). Details: stimulation of polymerase activity, primed M13mp18 ssDNA, 37° C. 2 hours.
T1 sequence (P54098 1-1239 Y955C): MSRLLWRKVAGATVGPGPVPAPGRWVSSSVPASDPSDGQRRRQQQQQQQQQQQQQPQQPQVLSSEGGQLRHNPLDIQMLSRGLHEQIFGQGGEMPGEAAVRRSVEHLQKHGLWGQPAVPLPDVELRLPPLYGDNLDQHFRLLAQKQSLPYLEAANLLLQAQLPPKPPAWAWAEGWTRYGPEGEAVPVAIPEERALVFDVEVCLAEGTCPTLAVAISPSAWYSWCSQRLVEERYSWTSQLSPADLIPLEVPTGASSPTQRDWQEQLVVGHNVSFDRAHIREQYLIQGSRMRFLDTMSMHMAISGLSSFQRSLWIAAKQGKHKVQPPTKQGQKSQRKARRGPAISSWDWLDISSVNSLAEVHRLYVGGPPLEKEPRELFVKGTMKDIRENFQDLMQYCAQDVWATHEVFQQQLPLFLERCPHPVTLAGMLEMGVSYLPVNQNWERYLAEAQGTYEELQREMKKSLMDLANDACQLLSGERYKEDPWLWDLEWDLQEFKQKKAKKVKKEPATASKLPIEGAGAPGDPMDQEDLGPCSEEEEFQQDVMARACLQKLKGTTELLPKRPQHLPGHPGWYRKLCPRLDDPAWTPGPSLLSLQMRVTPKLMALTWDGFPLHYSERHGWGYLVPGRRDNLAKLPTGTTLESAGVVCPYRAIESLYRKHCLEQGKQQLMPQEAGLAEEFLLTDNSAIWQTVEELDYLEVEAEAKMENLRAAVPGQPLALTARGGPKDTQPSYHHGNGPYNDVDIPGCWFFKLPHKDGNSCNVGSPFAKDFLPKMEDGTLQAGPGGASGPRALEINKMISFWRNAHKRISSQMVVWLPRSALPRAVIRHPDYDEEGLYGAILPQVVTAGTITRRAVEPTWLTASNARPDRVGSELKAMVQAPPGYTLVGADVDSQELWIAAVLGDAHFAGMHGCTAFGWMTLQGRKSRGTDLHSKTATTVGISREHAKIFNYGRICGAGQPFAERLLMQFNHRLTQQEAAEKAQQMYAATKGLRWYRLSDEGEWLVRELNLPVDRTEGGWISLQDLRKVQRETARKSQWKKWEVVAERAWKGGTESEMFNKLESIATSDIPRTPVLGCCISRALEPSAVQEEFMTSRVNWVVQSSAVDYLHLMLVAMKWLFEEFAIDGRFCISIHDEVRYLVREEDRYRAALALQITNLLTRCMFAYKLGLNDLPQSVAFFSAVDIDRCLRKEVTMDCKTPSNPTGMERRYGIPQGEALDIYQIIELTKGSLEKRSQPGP
T1 sequence (Q9UHN1 1-485 partner): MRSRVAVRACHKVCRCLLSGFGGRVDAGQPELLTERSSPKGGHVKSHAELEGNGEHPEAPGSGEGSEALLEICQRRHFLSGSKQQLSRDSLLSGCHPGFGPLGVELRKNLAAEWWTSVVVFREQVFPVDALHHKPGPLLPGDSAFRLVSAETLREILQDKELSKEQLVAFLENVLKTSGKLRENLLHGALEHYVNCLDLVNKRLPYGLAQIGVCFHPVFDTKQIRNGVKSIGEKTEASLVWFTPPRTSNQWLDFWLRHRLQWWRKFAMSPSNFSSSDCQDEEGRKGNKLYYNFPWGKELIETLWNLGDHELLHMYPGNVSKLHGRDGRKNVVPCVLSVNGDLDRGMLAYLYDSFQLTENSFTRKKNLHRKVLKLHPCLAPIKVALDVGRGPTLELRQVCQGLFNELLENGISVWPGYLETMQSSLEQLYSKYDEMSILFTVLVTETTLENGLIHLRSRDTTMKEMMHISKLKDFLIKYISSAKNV
Format: biochemical
Procedure: DNA Polymerization Assay to Monitor Effects on Human Wildtype POLγ and Four Disease-Causing Mutant Variants of Human POLγ.
The ability of small molecules to stimulate the polymerase activity of POLγ was analyzed in a quantitative fluorescence SYBR Green I assay with fluorescence intensity (FI) readout.
In the presence of dNTPs, wild type human POLγ and mutant derivatives thereof were incubated with single-stranded, circular M13mp18 ssDNA hybridized to a short DNA oligonucleotide that functions as a primer for initiation of DNA synthesis. POLγ and mutant derivatives thereof will extend the primer and use the M13mp18 molecule as a template to synthesize long stretches of double-stranded DNA. SYBR Green I, which is a double-stranded DNA-binding dye, was used to quantify formation of double-stranded DNA in the reaction. When bound to double-stranded DNA, SYBR Green I fluorescence increases by up to 100-fold.
The assay was performed in the 384-well plate format. Upon addition of compounds, changes in double-stranded DNA synthesis activity can be monitored by following effects on fluorescent intensity.
The reactions also contained the accessory POLγB subunit, and the human mitochondrial single-stranded DNA binding protein (mtSSB).
The DNA template mixture used in the assay contained 0.5 nM primed M13 mp18 ssDNA, 400 nM mtSSB, 0.1 mM Tris-HCl (pH 8.0), 0.1 mM dNTP, 10 mM MgCl2, 0.1 mg/mL BSA, 1 mM TCEP solution, and 0.02% Triton X-100. The DNA template mixture for the wild type protein contained either 100 μM dNTP, 1 μM dNTP, or 0.1 μM dNTP, designated in Table 2 as 100 μM, 1 μM, and 0.1 μM, respectfully.
Microplates with compounds (0.1 μL in each well) to be tested in the assay were prepared from 10 mM compound stocks in 100% DMSO, and equal amounts of DMSO without any compound were added to positive and negative control wells.
The protein mixture was dispensed (5 μL into each well) into compound plates and incubated at 37° C. for 15 minutes. After incubation, 5 μL of the DNA template mixture was dispensed into each well. The plates were then incubated at 37° C. for 2 hours.
During incubation, a combined stop buffer and detection reagent solution was prepared. The buffer contained 25 mM EDTA (pH 8.0), 0.02% Triton X-100, and SYBR Green I [Invitrogen] diluted 10,000× (for fluorescent readout). EDTA will stop the enzymatic reaction by chelating magnesium ions.

Structure (SMILES) | AC50
Cc1csc(-c2cccc(NS(=O)(=O)c3cc(C)c(Cl)cc3C)c2)n1 [Example 20, 4-chloro-2,5-dimethyl-N-(3-(4-methylthiazol-2-yl)phenyl)benzenesulfonamide] | 300 nM
Cc1cnc(-c2cccc(NS(=O)(=O)c3cc(C)c(Cl)cc3C)c2)s1 [Example 21, 4-chloro-2,5-dimethyl-N-(3-(5-methylthiazol-2-yl)phenyl)benzenesulfonamide] | 1000 nM
Cc1ccc(C)c(S(=O)(=O)Nc2cccc(-c3nccs3)c2)c1 [Example 60] | 400 nM
Cc1cc(S(=O)(=O)Nc2cccc(-c3cc(C4CC4)[nH]n3)c2)c(C)cc1Cl [Example 64, 4-chloro-N-(3-(5-cyclopropyl-1H-pyrazol-3-yl)phenyl)-2,5-dimethylbenzenesulfonamide] | > 100000 nM
CC[C@@H]1CCCN1C(=O)c1cccc(NS(=O)(=O)c2cc(C)c(Cl)cc2C)c1 [Example 65, (R)-4-chloro-N-(3-(2-ethylpyrrolidine-1-carbonyl)phenyl)-2,5-dimethylbenzenesulfonamide] | 2000 nM
Cc1cc(-c2cccc(NS(=O)(=O)c3cc(C)c(Cl)cc3C)c2)n[nH]1 [Example 66, 4-chloro-2,5-dimethyl-N-(3-(5-methyl-1H-pyrazol-3-yl)phenyl)benzenesulfonamide] | 2000 nM
Cc1cc(S(=O)(=O)Nc2cccc(-c3cc[nH]n3)c2)c(C)cc1Cl [Example 68, N-(3-(1H-pyrazol-3-yl)phenyl)-4-chloro-2,5-dimethylbenzenesulfonamide] | 2000 nM
Cc1cc(S(=O)(=O)Nc2ccc3ccn(C(C)C)c3c2)c(C)cc1Cl [Example 69, 4-chloro-N-(1-isopropyl-1H-indol-6-yl)-2,5-dimethylbenzenesulfonamide] | 400 nM
Cc1nc2ccc(NS(=O)(=O)c3cc(C)c(Cl)cc3C)cc2o1 [Example 70, 4-chloro-2,5-dimethyl-N-(2-methylbenzo[d]oxazol-6-yl)benzenesulfonamide] | 7000 nM
Cc1cc2cc(NS(=O)(=O)c3cc(C)c(Cl)cc3C)ccc2[nH]1 [Example 184, 4-chloro-2,5-dimethyl-N-(2-methyl-1H-indol-5-yl)benzenesulfonamide] | 2000 nM
